ChEMBL document CHEMBL4390652, “Design, biological evaluation and X-ray crystallography of nanomolar multifunctional ligands targeting simultaneously acetylcholinesterase and glycogen synthase kinase-3” (Eur J Med Chem, 2019)

Legend:
[1] = target: TGF-beta receptor type-2 (Homo sapiens) (UniProt P37173); assay: Binding affinity to wild-type human partial length TGFBR2 (I218 to K567 residues) expressed in bacterial expression system assessed as residual binding level at 10 uM by Kinomescan method relative to control
[2] = target: Vascular endothelial growth factor receptor 3 (Homo sapiens) (UniProt P35916); assay: Binding affinity to wild-type human partial length FLT4 (E821 to E1196 residues) expressed in bacterial expression system assessed as residual binding level at 10 uM by Kinomescan method relative to control
Vascular endothelial growth factor receptor 3 (Homo sapiens), sequence (P35916 whole entry, the tested form may be a part): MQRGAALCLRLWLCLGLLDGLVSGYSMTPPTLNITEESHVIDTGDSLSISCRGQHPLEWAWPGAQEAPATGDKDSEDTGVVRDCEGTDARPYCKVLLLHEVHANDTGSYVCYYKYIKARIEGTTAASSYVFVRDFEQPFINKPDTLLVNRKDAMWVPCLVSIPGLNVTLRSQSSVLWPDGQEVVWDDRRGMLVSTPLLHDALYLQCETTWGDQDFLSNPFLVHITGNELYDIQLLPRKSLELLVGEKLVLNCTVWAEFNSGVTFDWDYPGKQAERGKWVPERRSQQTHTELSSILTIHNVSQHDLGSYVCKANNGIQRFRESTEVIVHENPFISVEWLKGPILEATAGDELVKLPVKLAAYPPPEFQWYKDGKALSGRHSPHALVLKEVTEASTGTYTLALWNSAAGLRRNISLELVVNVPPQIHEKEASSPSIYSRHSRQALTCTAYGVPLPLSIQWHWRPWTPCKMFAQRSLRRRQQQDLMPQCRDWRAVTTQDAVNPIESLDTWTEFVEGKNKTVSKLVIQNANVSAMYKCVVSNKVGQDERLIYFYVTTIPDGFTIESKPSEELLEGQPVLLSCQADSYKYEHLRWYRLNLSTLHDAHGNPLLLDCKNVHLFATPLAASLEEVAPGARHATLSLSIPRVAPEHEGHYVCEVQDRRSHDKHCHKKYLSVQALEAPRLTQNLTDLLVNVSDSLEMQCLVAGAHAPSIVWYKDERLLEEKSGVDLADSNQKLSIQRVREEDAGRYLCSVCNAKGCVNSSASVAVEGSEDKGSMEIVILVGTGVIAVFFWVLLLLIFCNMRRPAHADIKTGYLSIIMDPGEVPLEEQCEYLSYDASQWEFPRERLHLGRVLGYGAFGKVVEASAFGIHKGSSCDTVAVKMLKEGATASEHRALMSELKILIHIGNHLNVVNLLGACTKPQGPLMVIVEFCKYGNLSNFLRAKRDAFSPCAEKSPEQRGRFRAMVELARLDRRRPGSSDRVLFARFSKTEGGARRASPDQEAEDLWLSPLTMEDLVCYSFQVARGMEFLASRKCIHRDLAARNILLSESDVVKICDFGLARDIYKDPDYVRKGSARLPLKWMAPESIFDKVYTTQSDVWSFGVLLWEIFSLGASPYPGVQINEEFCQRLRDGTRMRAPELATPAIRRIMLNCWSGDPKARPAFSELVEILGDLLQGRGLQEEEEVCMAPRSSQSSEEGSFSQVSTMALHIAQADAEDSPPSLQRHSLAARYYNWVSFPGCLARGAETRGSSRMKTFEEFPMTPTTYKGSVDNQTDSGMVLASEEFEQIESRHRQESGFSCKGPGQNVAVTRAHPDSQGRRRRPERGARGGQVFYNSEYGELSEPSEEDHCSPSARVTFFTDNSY

[3] = target: Serine/threonine-protein kinase PRP4 homolog (Homo sapiens) (UniProt Q13523); assay: Binding affinity to wild-type human partial length PRP4 (D657 to I1007 residues) expressed in bacterial expression system assessed as residual binding level at 10 uM by Kinomescan method relative to control
[4] = target: Serine/threonine-protein kinase RIO3 (Homo sapiens) (UniProt O14730); assay: Binding affinity to wild-type human full length RIOK3 (M1 to E519 residues) expressed in bacterial expression system assessed as residual binding level at 10 uM by Kinomescan method relative to control
Serine/threonine-protein kinase RIO3 (Homo sapiens), sequence (O14730 whole entry, the tested form may be a part): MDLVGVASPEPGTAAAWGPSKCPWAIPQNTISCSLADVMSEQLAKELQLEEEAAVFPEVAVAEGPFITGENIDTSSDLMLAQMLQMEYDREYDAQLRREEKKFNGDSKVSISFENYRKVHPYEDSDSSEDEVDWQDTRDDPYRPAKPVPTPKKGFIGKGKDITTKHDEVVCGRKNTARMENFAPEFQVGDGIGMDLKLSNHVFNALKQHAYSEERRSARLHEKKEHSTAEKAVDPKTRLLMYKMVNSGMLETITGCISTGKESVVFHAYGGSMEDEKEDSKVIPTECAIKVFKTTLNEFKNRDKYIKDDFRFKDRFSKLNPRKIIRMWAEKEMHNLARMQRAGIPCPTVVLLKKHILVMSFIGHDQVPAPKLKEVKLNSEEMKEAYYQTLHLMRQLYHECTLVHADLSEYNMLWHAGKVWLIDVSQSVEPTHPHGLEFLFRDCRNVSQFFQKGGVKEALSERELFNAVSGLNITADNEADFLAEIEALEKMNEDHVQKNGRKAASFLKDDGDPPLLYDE

[5] = target: Serine/threonine-protein kinase 25 (Homo sapiens) (UniProt O00506); assay: Binding affinity to wild-type human partial length YSK1 (V14 to H295 residues) expressed in bacterial expression system assessed as residual binding level at 10 uM by Kinomescan method relative to control
[6] = target: Tyrosine-protein kinase ABL2 (Homo sapiens) (UniProt P42684); assay: Binding affinity to wild-type human ABL2 (A248 to G542 residues) expressed in bacterial expression system assessed as residual binding level at 10 uM by Kinomescan method relative to control
[7] = target: Serine/threonine-protein kinase 32B (Homo sapiens) (UniProt Q9NY57); assay: Binding affinity to wild-type human full length YANK2 (M1 to S414 residues) expressed in bacterial expression system assessed as residual binding level at 10 uM by Kinomescan method relative to control
[8] = target: cGMP-dependent protein kinase 2 (Homo sapiens) (UniProt Q13237); assay: Binding affinity to wild-type human partial length PRKG2 (S422 to F762 residues) expressed in mammalian expression system assessed as residual binding level at 10 uM by Kinomescan method relative to control
cGMP-dependent protein kinase 2 (Homo sapiens), sequence (Q13237 whole entry, the tested form may be a part): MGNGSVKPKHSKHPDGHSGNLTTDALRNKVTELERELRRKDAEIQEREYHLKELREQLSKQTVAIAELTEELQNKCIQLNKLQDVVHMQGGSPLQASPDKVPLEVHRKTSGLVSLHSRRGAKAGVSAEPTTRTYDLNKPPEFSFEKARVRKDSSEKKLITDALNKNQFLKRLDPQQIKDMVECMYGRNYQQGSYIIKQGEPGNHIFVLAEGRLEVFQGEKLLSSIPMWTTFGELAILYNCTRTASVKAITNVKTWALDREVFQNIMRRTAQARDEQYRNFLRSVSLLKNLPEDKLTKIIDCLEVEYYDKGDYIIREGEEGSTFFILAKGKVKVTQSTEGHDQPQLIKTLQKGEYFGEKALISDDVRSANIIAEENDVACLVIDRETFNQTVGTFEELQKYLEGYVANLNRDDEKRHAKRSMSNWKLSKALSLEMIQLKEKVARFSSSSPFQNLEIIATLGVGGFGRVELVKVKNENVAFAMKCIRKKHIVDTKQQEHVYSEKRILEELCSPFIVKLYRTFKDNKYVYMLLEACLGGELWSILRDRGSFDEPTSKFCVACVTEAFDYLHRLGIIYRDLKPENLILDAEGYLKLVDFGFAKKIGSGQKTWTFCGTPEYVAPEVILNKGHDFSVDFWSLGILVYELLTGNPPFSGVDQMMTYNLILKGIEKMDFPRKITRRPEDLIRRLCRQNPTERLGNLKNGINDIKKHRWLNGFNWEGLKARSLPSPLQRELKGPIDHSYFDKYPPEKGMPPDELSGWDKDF

[9] = target: Serine/threonine-protein kinase PAK 4 (Homo sapiens) (UniProt O96013); assay: Binding affinity to wild-type human partial length PAK4 (Q144 to R438 residues) expressed in bacterial expression system assessed as residual binding level at 10 uM by Kinomescan method relative to control
[10] = target: Tyrosine-protein kinase ABL1 (Homo sapiens) (UniProt P00519); assay: Binding affinity to wild-type human phosphorylated ABL1 (S229 to K512 residues) expressed in mammalian expression system assessed as residual binding level at 10 uM by Kinomescan method relative to control
Tyrosine-protein kinase ABL1 (Homo sapiens), sequence (P00519 whole entry, the tested form may be a part): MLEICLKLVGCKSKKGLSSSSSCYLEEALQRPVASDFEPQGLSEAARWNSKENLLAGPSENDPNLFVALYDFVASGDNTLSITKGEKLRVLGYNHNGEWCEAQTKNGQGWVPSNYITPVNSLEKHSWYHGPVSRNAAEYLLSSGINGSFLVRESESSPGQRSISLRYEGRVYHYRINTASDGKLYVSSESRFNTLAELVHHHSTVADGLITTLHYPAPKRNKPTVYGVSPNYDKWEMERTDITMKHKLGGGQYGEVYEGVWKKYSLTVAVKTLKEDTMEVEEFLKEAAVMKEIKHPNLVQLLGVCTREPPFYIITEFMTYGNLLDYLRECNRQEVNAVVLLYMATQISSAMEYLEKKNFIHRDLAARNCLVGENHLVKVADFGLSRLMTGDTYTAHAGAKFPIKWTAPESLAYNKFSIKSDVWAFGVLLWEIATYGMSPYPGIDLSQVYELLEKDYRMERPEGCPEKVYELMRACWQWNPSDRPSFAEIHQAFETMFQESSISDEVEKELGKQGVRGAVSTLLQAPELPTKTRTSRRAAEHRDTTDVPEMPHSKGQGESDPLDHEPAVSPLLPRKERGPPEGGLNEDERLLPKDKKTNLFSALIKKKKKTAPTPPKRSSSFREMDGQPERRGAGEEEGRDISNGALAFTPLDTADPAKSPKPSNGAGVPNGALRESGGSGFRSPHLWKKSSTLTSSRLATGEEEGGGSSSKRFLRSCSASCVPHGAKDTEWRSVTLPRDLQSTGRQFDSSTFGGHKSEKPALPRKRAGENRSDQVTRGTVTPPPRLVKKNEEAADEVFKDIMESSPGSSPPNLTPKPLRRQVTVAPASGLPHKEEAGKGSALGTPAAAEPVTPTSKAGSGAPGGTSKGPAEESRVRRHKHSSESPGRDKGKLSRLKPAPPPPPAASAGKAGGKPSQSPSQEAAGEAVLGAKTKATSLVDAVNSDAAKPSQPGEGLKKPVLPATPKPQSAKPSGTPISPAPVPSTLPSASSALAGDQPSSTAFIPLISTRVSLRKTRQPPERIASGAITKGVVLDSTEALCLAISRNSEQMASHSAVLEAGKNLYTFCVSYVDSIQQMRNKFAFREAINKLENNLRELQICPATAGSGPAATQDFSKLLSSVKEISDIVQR

[11] = target: Mitogen-activated protein kinase kinase kinase kinase 3 (Homo sapiens) (UniProt Q8IVH8); assay: Binding affinity to wild-type human partial length MAP4K3 (M1 to D301 residues) expressed in bacterial expression system assessed as residual binding level at 10 uM by Kinomescan method relative to control
[12] = target: SNF-related serine/threonine-protein kinase (Homo sapiens) (UniProt Q9NRH2); assay: Binding affinity to wild-type human partial length SNRK (M1 to E339 residues) expressed in mammalian expression system assessed as residual binding level at 10 uM by Kinomescan method relative to control
[13] = target: Dual specificity testis-specific protein kinase 1 (Homo sapiens) (UniProt Q15569); assay: Binding affinity to wild-type human full length TESK1 (R37 to S626 residues) expressed in bacterial expression system assessed as residual binding level at 10 uM by Kinomescan method relative to control
Dual specificity testis-specific protein kinase 1 (Homo sapiens), sequence (Q15569 whole entry, looked up, the tested form may be a part): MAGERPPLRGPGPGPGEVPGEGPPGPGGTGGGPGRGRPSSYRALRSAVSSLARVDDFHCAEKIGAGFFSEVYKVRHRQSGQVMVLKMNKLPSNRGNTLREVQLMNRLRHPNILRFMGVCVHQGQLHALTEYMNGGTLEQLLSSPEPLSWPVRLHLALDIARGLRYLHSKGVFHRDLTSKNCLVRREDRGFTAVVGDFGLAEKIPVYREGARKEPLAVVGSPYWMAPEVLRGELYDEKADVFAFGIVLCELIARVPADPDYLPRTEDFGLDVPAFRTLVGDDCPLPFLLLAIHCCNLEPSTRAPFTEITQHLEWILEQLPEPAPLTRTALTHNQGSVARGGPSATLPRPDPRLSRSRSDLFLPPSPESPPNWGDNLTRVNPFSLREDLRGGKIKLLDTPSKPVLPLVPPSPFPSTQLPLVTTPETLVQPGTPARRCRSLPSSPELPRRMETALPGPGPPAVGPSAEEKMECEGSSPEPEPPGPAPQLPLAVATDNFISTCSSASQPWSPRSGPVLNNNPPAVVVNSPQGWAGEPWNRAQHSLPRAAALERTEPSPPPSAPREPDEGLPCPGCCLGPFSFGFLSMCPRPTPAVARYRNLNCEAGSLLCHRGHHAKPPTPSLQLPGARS

[14] = target: Tyrosine-protein kinase ABL1 (Homo sapiens) (UniProt P00519); assay: Binding affinity to wild-type human non-phosphorylated ABL1 (S229 to K512 residues) expressed in mammalian expression system assessed as residual binding level at 10 uM by Kinomescan method relative to control
[15] = tested on: eIF-2-alpha kinase GCN2 (Homo sapiens), Q9P2K8 [S808G]; assay: Binding affinity to wild-type human partial length GCN2 kinase domain 2 (R585 to T1018 residues) S808G mutant expressed in bacterial expression system assessed as residual binding level at 10 uM by Kinomescan method relative to control
[16] = target: Calcium/calmodulin-dependent protein kinase type 1B (Homo sapiens) (UniProt Q6P2M8); assay: Binding affinity to wild-type human partial length CAMK1B (W9 to A311 residues) expressed in mammalian expression system assessed as residual binding level at 10 uM by Kinomescan method relative to control
Calcium/calmodulin-dependent protein kinase type 1B (Homo sapiens), sequence (Q6P2M8 whole entry, the tested form may be a part): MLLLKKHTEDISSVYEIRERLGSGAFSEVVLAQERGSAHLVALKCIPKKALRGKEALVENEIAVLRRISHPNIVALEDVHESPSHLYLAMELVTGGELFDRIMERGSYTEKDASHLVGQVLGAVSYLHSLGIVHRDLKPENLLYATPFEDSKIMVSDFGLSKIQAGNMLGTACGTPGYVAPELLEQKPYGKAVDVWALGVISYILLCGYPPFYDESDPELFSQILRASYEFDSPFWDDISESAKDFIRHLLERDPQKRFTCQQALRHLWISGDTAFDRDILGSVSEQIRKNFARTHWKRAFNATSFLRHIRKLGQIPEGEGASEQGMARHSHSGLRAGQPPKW

[17] = target: Phosphatidylinositol 5-phosphate 4-kinase type-2 gamma (Homo sapiens) (UniProt Q8TBX8); assay: Binding affinity to wild-type human partial length PIP5K2C (M1 to A421 residues) expressed in mammalian expression system assessed as residual binding level at 10 uM by Kinomescan method relative to control
[18] = target: Transient receptor potential cation channel subfamily M member 6 (Homo sapiens) (UniProt Q9BX84); assay: Binding affinity to wild-type human partial length TRPM6 (Q1723 to I1998 residues) expressed in mammalian expression system assessed as residual binding level at 10 uM by Kinomescan method relative to control
[19] = target: Ephrin type-A receptor 5 (Homo sapiens) (UniProt P54756); assay: Binding affinity to wild-type human partial length EPHA5 (T627 to V930 residues) expressed in bacterial expression system assessed as residual binding level at 10 uM by Kinomescan method relative to control
[20] = target: Protein kinase C eta type (Homo sapiens) (UniProt P24723); assay: Binding affinity to wild-type human partial length PRKCH (S324 to P683 residues) expressed in bacterial expression system assessed as residual binding level at 10 uM by Kinomescan method relative to control
[21] = target: Mitogen-activated protein kinase 7 (Homo sapiens) (UniProt Q13164); assay: Binding affinity to wild-type human partial length ERK5 (M1 to A409 residues) expressed in bacterial expression system assessed as residual binding level at 10 uM by Kinomescan method relative to control
[22] = target: Serine/threonine-protein kinase PLK3 (Homo sapiens) (UniProt Q9H4B4); assay: Binding affinity to wild-type human partial length PLK3 (A42 to L334 residues) expressed in mammalian expression system assessed as residual binding level at 10 uM by Kinomescan method relative to control
[23] = target: Mitogen-activated protein kinase kinase kinase 11 (Homo sapiens) (UniProt Q16584); assay: Binding affinity to wild-type human partial length MLK3 (I77 to W399 residues) expressed in bacterial expression system assessed as residual binding level at 10 uM by Kinomescan method relative to control
[24] = target: Proto-oncogene tyrosine-protein kinase receptor Ret (Homo sapiens) (UniProt P07949); assay: Binding affinity to wild-type human partial length RET (E713 to D1014 residues) expressed in bacterial expression system assessed as residual binding level at 10 uM by Kinomescan method relative to control

SMILES: O=C(Nc1cc(-c2cn(CCNc3c4c(nc5ccccc35)CCCC4)nn2)ccn1)Nc1cccc2c1C1CCCCN1C2=O (racemic)
- Activity [1]: 19%
- Activity [2]: 2.7%
- Activity [3]: 15%
- Activity [4]: 11%
- Activity [5]: 54%
- Activity [6]: 22%
- Activity [7]: 100%
- Activity [8]: 4.4%
- Activity [9]: 14%
- Activity [10]: 0.6%
- Activity [11]: 21%
- Activity [12]: 100%
- Activity [13]: 75%
- Activity [14]: 1.6%
- Activity [15]: 75%
- Activity [16]: 100%
- Activity [17]: 3.4%
- Activity [18]: 100%
- Activity [19]: 81%
- Activity [20]: 3.9%
- Activity [21]: 57%
- Activity [22]: 77%
- Activity [23]: 58%
- Activity [24]: 39%
